Results from PMC9501280, “Anti-Inflammatory Activity of Soluble Epoxide Hydrolase Inhibitors Based on Selenoureas Bearing an Adamantane Moiety” (International Journal of Molecular Sciences, 2022).

Columns and labels:
[1] = MTT cytotoxicity on peritoneal macrophages; format: cell-based, mice; conditions: male, C57bl/6j, mouse; 24 h incubation; read-out: MTT CC50 ± SE
Description: (§1) Peritoneal macrophages (PM) were isolated from the peritoneal exudate of 30 male C57bl/6j mice. To accumulate PM, 1 mL of 3% peptone solution was injected intraperitoneally. After 3 days, the mice were euthanized by cervical dislocation. Cells of peritoneal exudate were obtained by aseptic washing of the abdominal cavity with 5 mL of sterile Hanks’s solution (+4–6 °C) without calcium and magnesium ions. The total number and viability of cells were assessed in a Goryaev counting chamber (Russia) with a 0.4% trypan blue staining (Sigma-Aldrich, St. Louis, MO, USA). The cell concentration was adjusted to 1.0 × 10^6 cells/mL in DMEM (Gibco) supplemented with 2 mM L-glutamine (Gibco), 10% heat-inactivated fetal bovine serum (BioClot, Passau, Germany), 100 U/mL penicillin and […] streptomycin (Gibco) and plated 200 μL/well in 96-well transparent plates (SPL Life Sciences Co., Ltd., Pochon, Korea). After 2 h at 37 °C in a humidified atmosphere with 5% CO2, wells were washed to remove nonadherent cells. After 24 h of incubation, 20 μL of the supernatants were substituted with 20 μL of solutions of the test compounds, followed with E. coli O127:B8 LPS (100 ng/mL final concentration) after 30 min. Experiments were run in 3 independent replicates.
(§2) The activity of lactate dehydrogenase (LDH) in a cell culture medium served as a marker of membrane permeability and cell death. Aliquots of supernatants were taken after 24 h of inoculation with test compounds, mixed with 250 μL of […] NADH solution in 54 mM phosphate-buffered saline (pH 7.5). Then, 25 μL of a 6.48 mM pyruvate solution was added to the mixture. The optical density was followed at a wavelength of 340 nm for 20 min. The MTT test was performed 24 h after the incubation of cells with the tested compounds. Briefly, 20 μL of MTT solution was added to each well and incubated at 37 °C in a humidified atmosphere containing 5% CO2 for 4 h. The culture medium was aspirated, the cells were lysed and formazan crystals dissolved in 150 μL of DMSO. The plates were shaken at room temperature for 10 min, and the optical density was measured in a microplate reader Infinite M200 PRO (Tecan Group Ltd., Männedorf, Switzerland) at a wavelength of 565 nm.

[2] = test system: C57bl/6j peritoneal macrophages; assay: MTT cytotoxicity on peritoneal macrophages; format: cell-based, mice; conditions: Mus musculus, Peritoneal macrophage, read-out: EC50 ± SEM, C57bl/6j
Description: as §1, §2

[3] = LDH release cytotoxicity on peritoneal macrophages; format: cell-based, mice; conditions: male, C57bl/6j, mouse; 24 h incubation; read-out: LDH CC50 ± SE
Description: as §1
as §2, with “Briefly, 20 μL of MTT solution was added to each well and incubated at 37 °C in a humidified atmosphere containing 5% CO2 for 4 h. The culture medium was aspirated, the cells were lysed and formazan crystals dissolved in 150 μL of DMSO.” left out

[4] = test system: human fibroblast cells (MRC-5); assay: MTT test with human fibroblast cells; format: cell-based; conditions: MRC5, 72 h, read-out: EC50 ± SEM, MRC-5
Description: The studied compounds were added in concentrations of 1, 3, 6, 12, 25, 50, and 100 μM.
Human fibroblast cells (MRC-5) were used in this study. The cells were cultured in the DMEM medium that contained 10% embryonic calf serum in a CO2 incubator at 37 °C. The tested compounds were dissolved in DMSO and added to the cellular culture at the required concentrations. Three wells were used for each concentration. The cells that were incubated without the compounds were used as a negative control, and doxorubicin was used as the positive one. Cells were placed on 96-well microliter plates and cultivated at 37 °C in 5% CO2/95% air for 72 h. The cell viability was assessed through an MTT (3-(4,5-dimethylthiazol-2-yl)-2,5-phenyl-2H-tetrazolium bromide) conversion assay. A total of 1% MTT was added to each well. Three hours later, isopropanol was added and mixed for 15 min. Optical density (OD) of the samples was measured on a ThermoFischer multi-well spectrophotometer at a wavelength of 450 nm. […] The experimental results are given as average values obtained from three independently conducted experiments.

[5] = test system: E. coli MG1655 pXen7; assay: Constitutive lux-biosensor, general toxicity; format: cell-based, Escherichia coli; conditions: compound at 1 mM; decrease ascribed to shielding of bioluminescence
Description: Importantly, all the studied compounds are poorly soluble in water and can form a suspension at 1 mM; moreover, compound 4a at concentrations above 100 μM presents a substance of dark color and is capable of the partial shielding of bioluminescence.
pColD-lux―PcolD is induced by the SOS response; pDps―Pdps is activated in the presence of DNA-oxidizing agents; pSoxS-lux―PSoxS is induced in the presence of superoxide anion radicals; pOxyR-lux―PoxyR is induced in response to the appearance of hydrogen peroxide or organic peroxides; pAlkA-lux―PalkA is induced in response to DNA alkylation. pXen7 contains P. luminescens ZM1 lux genes controlled by its own promoter, which was used as a constitutive.
The bioluminescence of cells was measured using a Synergy HT luminometer (Biotek, Winooski, VT, USA) at room temperature. Lux biosensors based on E. coli were grown to an early logarithmic phase (OD ≈ 0.1) to achieve a background luminescence approximately 100–1000 RLU at the beginning of the measurements. Lux biosensors based on B. subtilis were grown to a logarithmic phase with an optical density OD ≈ 0.6 (and background luminescence of about 10–500 RLU). Biosensor cell cultures were divided into portions of 200 μL in a 96-well plate. […] The kinetics of change in luminescence was measured at room temperature.

[6] = test system: E. coli PQ37; assay: SOS chromotest; format: cell-based
Description: For the final safety check of selenoureas, the SOS chromotest was carried out. […] The results are presented as the mean value of induction factor I (c) ± SEM based on the results of three independent experiments, each of which included three replicates (Table 5).
The SOS chromotest was carried out according to the standard procedure, with recommended additions. The E. coli PQ37 strain was provided by P. Quillardet (Paris, France). The test compounds were dissolved in dimethyl sulfoxide (DMSO) (also used as a negative control) and added to the bacterial medium in the required concentrations; the concentration of the injected solutions was 1% by volume.

SMILES: [Se]=C(Nc1ccccc1)NC12CC3CC(CC(C3)C1)C2 [4a, 1-(Adamantan-1-yl)-3-phenylselenourea]
- CC50 at 24 h [1]: 7.5 ± 1.9 µM
- EC50 [2]: 7.5 ± 1.9 µM
- CC50 at 24 h [3]: 29.4 ± 8.5 µM
- EC50 [4]: 3.38 ± 0.49 µM
- luminescence decrease coefficient of the pXen7 biosensor [5]: 0.29 ± 0.08
- genotoxic activity (in words) ([6]; SOS chromotest / lux-biosensors): does not exhibit genotoxic properties
- I(c) ± SE, 10 µM ([6]; induction factor, compound 10 µM): 1.03 ± 0.13
- I(c) ± SE, 25 µM ([6]; induction factor, compound 25 µM): 1.09 ± 0.14
- I(c) ± SE, 50 µM ([6]; induction factor, compound 50 µM): 1 ± 0.15
- I(c) ± SE, 100 µM ([6]; induction factor, compound 100 µM): 1.08 ± 0.09
